The values that follow come from patent US6794388B2, “Succinic acid salts of 5,7,14-triazatetracyclo[10.3.1.02,11.04,9] -hexadeca-1(11),3,5,7,9-pentaene and pharmaceutical compositions thereof” (Pfizer Inc., priority 2001, dated 2004).

Holding throughout (type): physicochemical
Data set [1] in a line: solubility in various solvents. The note with it: organic solvent or mixture. On the procedure:
(§1) The aqueous solubility of the anhydrous succinate salt has been measured under various conditions: >10 mg/mL in pH 4 buffer; >10 mg/mL in pH 10 buffer; >10 mg/mL in 0.1 N HCl; and >10 mg/mL in 0.1 N NaOH. The solubility of the anhydrous succinate salt has also been measured in various solvents: >10 mg/mL in methanol; 0.1 mg/mL in acetonitrile and <0.01 mg/mL in hexane. The hygroscopicity of the anhydrous succinate salt has also been measured under various conditions: 0.0% moisture gain at 20% Relative Humidity; 0.3% moisture gain at 40% Relative Humidity; 0.6% moisture gain at 60% Relative Humidity; 0.9% moisture gain at 80% Relative Humidity and 1.3% moisture gain at 95% Relative Humidity.

Data set [2] in a line: hygroscopicity (moisture gain on exposure to relative humidity in a moisture chamber). Here is the method: (§2) Although in general the acid addition salts of 5,8,14-triazatetracyclo[10.3.1.0^2,11.0^4,9]-hexadeca-2(11),3,5,7,9-pentaene are all crystalline, the majority of those salts are so hygroscopic as to render them poor candidates for pharmaceutical formulation use.
as §1

Data set [3] can be described thus: solid state stability (light, elevated temperature, high humidity challenges). The note with it: elevated temperatures.
From the text: as §2

The nature of a further data set: aqueous solubility. Here is the method: as §2, §1
Data set [4] in a line: native pH in aqueous solution.

Where a name gives a salt, the structure may show the parent alone.

Take `c1cnc2cc3c(cc2n1)C1CNCC3C1` [anhydrous succinate salt, Anhydrous Succinate Salt of 5,8,14-Triazatetracyclo[10.3.1.0^2,11.0^4,9]-hexadeca-2(11),3,5,7,9-pentaene]: the solubility (as a rule, the concentration that dissolves in the medium under given conditions) is 100 µg/mL in data set [1] (in acetonitrile); below 10 µg/mL in data set [1] (in hexane); above 10000 µg/mL in data set [1] (in methanol); above 10000 µg/mL in “aqueous solubility” (aqueous buffer, in 0.1 N NaOH); above 10000 µg/mL in the data set “aqueous solubility” (aqueous buffer, in pH 4 buffer); above 10000 µg/mL in “aqueous solubility” (aqueous buffer, in pH 10 buffer). For the same compound, the solubility was above 10000 µg/mL in “aqueous solubility” (simulated gastric fluid, in 0.1 N HCl) and 442000 µg/mL in the data set “aqueous solubility” (water). Further, the “hygroscopicity, moisture gain” value in data set [2] (at 20% Relative Humidity) amounted to 0.0%; in data set [2] (at 40% Relative Humidity), 0.3%; in data set [2] (at 60% Relative Humidity) it was 0.6%; in data set [2] (at 80% Relative Humidity), 0.9%; in data set [2] (at 95% Relative Humidity) it was 1.3%. Besides, the hygroscopicity result in data set [2] (at 90% relative humidity) is on record as “approximately 1.97%”; in data set [2] (exposure to 90% relative humidity in a moisture chamber), “approximately 1.97 % wt/wt”. The solid state stability result in data set [3] is “excellent solid state stability”. Besides, in data set [4], the “native pH in aqueous solution” value came to 4.7.
